Oligonucleotides are given in HELM: sugar(base)linkage, 5' to 3'; d 2'-deoxyribose, r ribose, m 2'-O-methylribose, p phosphate. ss, as = sense and antisense strand
Further: test concentration or dose not given here.

The series has as its target SOST. Kind of series: reporter assay of Huesken 2005. Conditions: siRNA. (In general: A reporter such as luciferase makes a cellular process visible.)
“RNA1{r(A)p.r(C)p.r(C)p.r(A)p.r(U)p.r(G)p.r(A)p.r(A)p.r(C)p.r(C)p.r(G)p.r(G)p.r(G)p.r(C)p.r(G)p.r(G)p.r(A)p.r(G)p.r(A)p.d(T)p.d(T)}|RNA2{r(U)p.r(C)p.r(U)p.r(C)p.r(C)p.r(G)p.r(C)p.r(C)p.r(C)p.r(G)p.r(G)p.r(U)p.r(U)p.r(C)p.r(A)p.r(U)p.r(G)p.r(G)p.r(U)p.d(C)p.d(T)}$$$RNA1{StrandType:ss}|RNA2{StrandType:as}$” yielded a normalised inhibition (eCFP-eYFP dual reporter) of 69.5%.
Under “RNA1{r(C)p.r(U)p.r(U)p.r(C)p.r(A)p.r(C)p.r(C)p.r(C)p.r(G)p.r(C)p.r(U)p.r(A)p.r(C)p.r(G)p.r(U)p.r(G)p.r(A)p.r(C)p.r(C)p.d(T)p.d(T)}|RNA2{r(G)p.r(G)p.r(U)p.r(C)p.r(A)p.r(C)p.r(G)p.r(U)p.r(A)p.r(G)p.r(C)p.r(G)p.r(G)p.r(G)p.r(U)p.r(G)p.r(A)p.r(A)p.r(G)p.d(T)p.d(G)}$$$RNA1{StrandType:ss}|RNA2{StrandType:as}$” stands 59.4%; under “RNA1{r(C)p.r(C)p.r(G)p.r(U)p.r(G)p.r(C)p.r(C)p.r(G)p.r(C)p.r(A)p.r(G)p.r(C)p.r(G)p.r(C)p.r(C)p.r(A)p.r(A)p.r(G)p.r(C)p.d(T)p.d(T)}|RNA2{r(G)p.r(C)p.r(U)p.r(U)p.r(G)p.r(G)p.r(C)p.r(G)p.r(C)p.r(U)p.r(G)p.r(C)p.r(G)p.r(G)p.r(C)p.r(A)p.r(C)p.r(G)p.r(G)p.d(C)p.d(C)}$$$RNA1{StrandType:ss}|RNA2{StrandType:as}$”, 50.5%.
“RNA1{r(G)p.r(C)p.r(U)p.r(G)p.r(C)p.r(A)p.r(C)p.r(U)p.r(U)p.r(C)p.r(A)p.r(C)p.r(C)p.r(C)p.r(G)p.r(C)p.r(U)p.r(A)p.r(C)p.d(T)p.d(T)}|RNA2{r(G)p.r(U)p.r(A)p.r(G)p.r(C)p.r(G)p.r(G)p.r(G)p.r(U)p.r(G)p.r(A)p.r(A)p.r(G)p.r(U)p.r(G)p.r(C)p.r(A)p.r(G)p.r(C)p.d(T)p.d(C)}$$$RNA1{StrandType:ss}|RNA2{StrandType:as}$” came in with a normalised inhibition (eCFP-eYFP dual reporter) of 75.4%.
Turning to “RNA1{r(G)p.r(C)p.r(C)p.r(C)p.r(A)p.r(A)p.r(C)p.r(G)p.r(C)p.r(C)p.r(A)p.r(U)p.r(C)p.r(G)p.r(G)p.r(C)p.r(C)p.r(G)p.r(C)p.d(T)p.d(T)}|RNA2{r(G)p.r(C)p.r(G)p.r(G)p.r(C)p.r(C)p.r(G)p.r(A)p.r(U)p.r(G)p.r(G)p.r(C)p.r(G)p.r(U)p.r(U)p.r(G)p.r(G)p.r(G)p.r(C)p.d(A)p.d(G)}$$$RNA1{StrandType:ss}|RNA2{StrandType:as}$”, the normalised inhibition (eCFP-eYFP dual reporter) came to 64.3%.
On to “RNA1{r(A)p.r(C)p.r(C)p.r(G)p.r(G)p.r(A)p.r(G)p.r(C)p.r(U)p.r(G)p.r(G)p.r(A)p.r(G)p.r(A)p.r(A)p.r(C)p.r(A)p.r(A)p.r(C)p.d(T)p.d(T)}|RNA2{r(G)p.r(U)p.r(U)p.r(G)p.r(U)p.r(U)p.r(C)p.r(U)p.r(C)p.r(C)p.r(A)p.r(G)p.r(C)p.r(U)p.r(C)p.r(C)p.r(G)p.r(G)p.r(U)p.d(G)p.d(G)}$$$RNA1{StrandType:ss}|RNA2{StrandType:as}$”, for which the normalised inhibition (eCFP-eYFP dual reporter) was 83.3%.
Substance “RNA1{r(C)p.r(C)p.r(A)p.r(C)p.r(A)p.r(A)p.r(C)p.r(C)p.r(A)p.r(G)p.r(U)p.r(C)p.r(G)p.r(G)p.r(A)p.r(G)p.r(C)p.r(U)p.r(C)p.d(T)p.d(T)}|RNA2{r(G)p.r(A)p.r(G)p.r(C)p.r(U)p.r(C)p.r(C)p.r(G)p.r(A)p.r(C)p.r(U)p.r(G)p.r(G)p.r(U)p.r(U)p.r(G)p.r(U)p.r(G)p.r(G)p.d(A)p.d(A)}$$$RNA1{StrandType:ss}|RNA2{StrandType:as}$” came in with a normalised inhibition (eCFP-eYFP dual reporter) of 80.8%.
The figure for “RNA1{r(C)p.r(U)p.r(A)p.r(C)p.r(C)p.r(G)p.r(C)p.r(G)p.r(C)p.r(G)p.r(C)p.r(A)p.r(G)p.r(C)p.r(G)p.r(C)p.r(G)p.r(U)p.r(G)p.d(T)p.d(T)}|RNA2{r(C)p.r(A)p.r(C)p.r(G)p.r(C)p.r(G)p.r(C)p.r(U)p.r(G)p.r(C)p.r(G)p.r(C)p.r(G)p.r(C)p.r(G)p.r(G)p.r(U)p.r(A)p.r(G)p.d(C)p.d(G)}$$$RNA1{StrandType:ss}|RNA2{StrandType:as}$” is 50.5%; for “RNA1{r(C)p.r(G)p.r(G)p.r(U)p.r(C)p.r(A)p.r(C)p.r(C)p.r(G)p.r(A)p.r(G)p.r(C)p.r(U)p.r(G)p.r(G)p.r(U)p.r(G)p.r(U)p.r(G)p.d(T)p.d(T)}|RNA2{r(C)p.r(A)p.r(C)p.r(A)p.r(C)p.r(C)p.r(A)p.r(G)p.r(C)p.r(U)p.r(C)p.r(G)p.r(G)p.r(U)p.r(G)p.r(A)p.r(C)p.r(C)p.r(G)p.d(G)p.d(C)}$$$RNA1{StrandType:ss}|RNA2{StrandType:as}$” it is 52.2%; for “RNA1{r(C)p.r(A)p.r(A)p.r(G)p.r(U)p.r(G)p.r(C)p.r(A)p.r(A)p.r(G)p.r(C)p.r(G)p.r(C)p.r(C)p.r(U)p.r(C)p.r(A)p.r(C)p.r(C)p.d(T)p.d(T)}|RNA2{r(G)p.r(G)p.r(U)p.r(G)p.r(A)p.r(G)p.r(G)p.r(C)p.r(G)p.r(C)p.r(U)p.r(U)p.r(G)p.r(C)p.r(A)p.r(C)p.r(U)p.r(U)p.r(G)p.d(C)p.d(A)}$$$RNA1{StrandType:ss}|RNA2{StrandType:as}$” it is 68.8%.
Under “RNA1{r(A)p.r(G)p.r(U)p.r(G)p.r(G)p.r(U)p.r(G)p.r(G)p.r(C)p.r(G)p.r(A)p.r(C)p.r(C)p.r(U)p.r(A)p.r(G)p.r(U)p.r(G)p.r(G)p.d(T)p.d(T)}|RNA2{r(C)p.r(C)p.r(A)p.r(C)p.r(U)p.r(A)p.r(G)p.r(G)p.r(U)p.r(C)p.r(G)p.r(C)p.r(C)p.r(A)p.r(C)p.r(C)p.r(A)p.r(C)p.r(U)p.d(T)p.d(G)}$$$RNA1{StrandType:ss}|RNA2{StrandType:as}$” stands 78.9%; under “RNA1{r(C)p.r(C)p.r(G)p.r(G)p.r(U)p.r(G)p.r(G)p.r(U)p.r(G)p.r(A)p.r(G)p.r(G)p.r(C)p.r(G)p.r(C)p.r(C)p.r(G)p.r(C)p.r(G)p.d(T)p.d(T)}|RNA2{r(C)p.r(G)p.r(C)p.r(G)p.r(G)p.r(C)p.r(G)p.r(C)p.r(C)p.r(U)p.r(C)p.r(A)p.r(C)p.r(C)p.r(A)p.r(C)p.r(C)p.r(G)p.r(G)p.d(G)p.d(A)}$$$RNA1{StrandType:ss}|RNA2{StrandType:as}$”, 35.8%; under “RNA1{r(C)p.r(G)p.r(C)p.r(C)p.r(A)p.r(A)p.r(G)p.r(C)p.r(C)p.r(G)p.r(G)p.r(U)p.r(C)p.r(A)p.r(C)p.r(C)p.r(G)p.r(A)p.r(G)p.d(T)p.d(T)}|RNA2{r(C)p.r(U)p.r(C)p.r(G)p.r(G)p.r(U)p.r(G)p.r(A)p.r(C)p.r(C)p.r(G)p.r(G)p.r(C)p.r(U)p.r(U)p.r(G)p.r(G)p.r(C)p.r(G)p.d(C)p.d(T)}$$$RNA1{StrandType:ss}|RNA2{StrandType:as}$”, 59.1%.
Under “RNA1{r(C)p.r(G)p.r(C)p.r(C)p.r(U)p.r(G)p.r(C)p.r(U)p.r(G)p.r(C)p.r(C)p.r(C)p.r(A)p.r(A)p.r(C)p.r(G)p.r(C)p.r(C)p.r(A)p.d(T)p.d(T)}|RNA2{r(U)p.r(G)p.r(G)p.r(C)p.r(G)p.r(U)p.r(U)p.r(G)p.r(G)p.r(G)p.r(C)p.r(A)p.r(G)p.r(C)p.r(A)p.r(G)p.r(G)p.r(C)p.r(G)p.d(C)p.d(G)}$$$RNA1{StrandType:ss}|RNA2{StrandType:as}$” stands 64.6%; under “RNA1{r(A)p.r(G)p.r(C)p.r(U)p.r(C)p.r(A)p.r(A)p.r(G)p.r(G)p.r(A)p.r(C)p.r(U)p.r(U)p.r(C)p.r(G)p.r(G)p.r(G)p.r(A)p.r(C)p.d(T)p.d(T)}|RNA2{r(G)p.r(U)p.r(C)p.r(C)p.r(C)p.r(G)p.r(A)p.r(A)p.r(G)p.r(U)p.r(C)p.r(C)p.r(U)p.r(U)p.r(G)p.r(A)p.r(G)p.r(C)p.r(U)p.d(C)p.d(C)}$$$RNA1{StrandType:ss}|RNA2{StrandType:as}$”, 64.7%.
With “RNA1{r(C)p.r(C)p.r(G)p.r(U)p.r(G)p.r(U)p.r(A)p.r(G)p.r(U)p.r(G)p.r(G)p.r(A)p.r(G)p.r(G)p.r(G)p.r(C)p.r(C)p.r(A)p.r(G)p.d(T)p.d(T)}|RNA2{r(C)p.r(U)p.r(G)p.r(G)p.r(C)p.r(C)p.r(C)p.r(U)p.r(C)p.r(C)p.r(A)p.r(C)p.r(U)p.r(A)p.r(C)p.r(A)p.r(C)p.r(G)p.r(G)p.d(A)p.d(A)}$$$RNA1{StrandType:ss}|RNA2{StrandType:as}$”, the normalised inhibition (eCFP-eYFP dual reporter) is 55.2%.
Regarding “RNA1{r(A)p.r(C)p.r(A)p.r(A)p.r(C)p.r(A)p.r(A)p.r(G)p.r(A)p.r(C)p.r(C)p.r(A)p.r(U)p.r(G)p.r(A)p.r(A)p.r(C)p.r(C)p.r(G)p.d(T)p.d(T)}|RNA2{r(C)p.r(G)p.r(G)p.r(U)p.r(U)p.r(C)p.r(A)p.r(U)p.r(G)p.r(G)p.r(U)p.r(C)p.r(U)p.r(U)p.r(G)p.r(U)p.r(U)p.r(G)p.r(U)p.d(T)p.d(C)}$$$RNA1{StrandType:ss}|RNA2{StrandType:as}$”, the normalised inhibition (eCFP-eYFP dual reporter) worked out at 52.2%.
In the case of “RNA1{r(U)p.r(C)p.r(G)p.r(G)p.r(C)p.r(C)p.r(G)p.r(C)p.r(G)p.r(G)p.r(C)p.r(A)p.r(A)p.r(G)p.r(U)p.r(G)p.r(G)p.r(U)p.r(G)p.d(T)p.d(T)}|RNA2{r(C)p.r(A)p.r(C)p.r(C)p.r(A)p.r(C)p.r(U)p.r(U)p.r(G)p.r(C)p.r(C)p.r(G)p.r(C)p.r(G)p.r(G)p.r(C)p.r(C)p.r(G)p.r(A)p.d(T)p.d(G)}$$$RNA1{StrandType:ss}|RNA2{StrandType:as}$”, the normalised inhibition (eCFP-eYFP dual reporter) is 66%.
For the substance “RNA1{r(G)p.r(C)p.r(U)p.r(C)p.r(C)p.r(G)p.r(G)p.r(C)p.r(C)p.r(A)p.r(G)p.r(U)p.r(G)p.r(C)p.r(G)p.r(G)p.r(C)p.r(C)p.r(C)p.d(T)p.d(T)}|RNA2{r(G)p.r(G)p.r(G)p.r(C)p.r(C)p.r(G)p.r(C)p.r(A)p.r(C)p.r(U)p.r(G)p.r(G)p.r(C)p.r(C)p.r(G)p.r(G)p.r(A)p.r(G)p.r(C)p.d(A)p.d(C)}$$$RNA1{StrandType:ss}|RNA2{StrandType:as}$”, the normalised inhibition (eCFP-eYFP dual reporter) turned out to be 53%.
Under “RNA1{r(C)p.r(C)p.r(C)p.r(G)p.r(C)p.r(U)p.r(A)p.r(C)p.r(G)p.r(U)p.r(G)p.r(A)p.r(C)p.r(C)p.r(G)p.r(A)p.r(U)p.r(G)p.r(G)p.d(T)p.d(T)}|RNA2{r(C)p.r(C)p.r(A)p.r(U)p.r(C)p.r(G)p.r(G)p.r(U)p.r(C)p.r(A)p.r(C)p.r(G)p.r(U)p.r(A)p.r(G)p.r(C)p.r(G)p.r(G)p.r(G)p.d(T)p.d(G)}$$$RNA1{StrandType:ss}|RNA2{StrandType:as}$” stands 77.6%.
